This assay has as its target T1, F508delCFTR cell surface expression in CFBE41o-F508delCFTR-HRP cells (Homo sapiens, UniProt P13569, DEL508-508).
T1 construct: fused on or other part: Horseradish peroxidase (HRP) reporter inserted in the fourth exofacial (extracellular) loop of CFTR; expression is doxycycline-inducible
In words: Cell Surface Expression-Horse Radish Peroxidase (CSE-HRP) Assay. The assay is classed as cell-based. To be noted: for EC50: CFBE41o-F508delCFTR-HRP cells, 18-24 hours at 33° C., 8-point curve, highest concentration 20 μM; for Maximum % activity (%): maximum at any tested concentration, normalized to on-plate positive control (3 μM). The method, boiled down:
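Correctors incubated 18-24 h at 33 °C on doxycycline-induced (0.5 μg/mL, 72 h) CFBE41o-F508delCFTR-HRP cells, 3-fold series from 20 μM. After DPBS washes, luminol luminescence read; activity expressed relative to DMSO and a 3 μM positive control, EC50 fitted from triplicate plates.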

These results are taken from US9840513B2 (AbbVie S.à.r.l., priority 2015, dated 2017).

A value given as a limit tells only on which side of the number the result lay.

T1 sequence (P13569 with tags, fused parts or gaps DEL508-508 limits assumed): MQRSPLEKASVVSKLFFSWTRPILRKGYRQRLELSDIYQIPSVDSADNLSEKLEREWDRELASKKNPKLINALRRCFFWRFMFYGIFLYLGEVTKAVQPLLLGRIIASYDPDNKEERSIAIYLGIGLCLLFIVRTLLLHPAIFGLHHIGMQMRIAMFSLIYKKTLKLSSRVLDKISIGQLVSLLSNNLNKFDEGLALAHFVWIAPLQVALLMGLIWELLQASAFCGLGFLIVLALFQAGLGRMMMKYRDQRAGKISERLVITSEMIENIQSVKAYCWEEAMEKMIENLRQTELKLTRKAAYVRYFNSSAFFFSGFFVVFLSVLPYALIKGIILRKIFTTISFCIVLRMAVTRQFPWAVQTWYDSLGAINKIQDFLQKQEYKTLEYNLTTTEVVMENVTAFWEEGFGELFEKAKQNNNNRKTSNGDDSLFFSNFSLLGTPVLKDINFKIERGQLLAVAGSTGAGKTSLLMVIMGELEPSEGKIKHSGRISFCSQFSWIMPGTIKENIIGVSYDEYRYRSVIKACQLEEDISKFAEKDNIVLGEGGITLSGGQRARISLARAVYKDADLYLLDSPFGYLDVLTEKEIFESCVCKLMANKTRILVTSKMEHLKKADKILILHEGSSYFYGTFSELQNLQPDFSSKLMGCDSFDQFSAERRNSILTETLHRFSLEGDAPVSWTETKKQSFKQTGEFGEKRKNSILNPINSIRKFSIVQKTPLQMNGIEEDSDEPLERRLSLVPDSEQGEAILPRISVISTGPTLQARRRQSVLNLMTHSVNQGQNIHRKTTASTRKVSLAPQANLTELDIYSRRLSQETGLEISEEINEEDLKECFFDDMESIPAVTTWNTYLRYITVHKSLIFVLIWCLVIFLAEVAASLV
T1 sequence (P13569 919-1480 limits assumed, stated change not applied): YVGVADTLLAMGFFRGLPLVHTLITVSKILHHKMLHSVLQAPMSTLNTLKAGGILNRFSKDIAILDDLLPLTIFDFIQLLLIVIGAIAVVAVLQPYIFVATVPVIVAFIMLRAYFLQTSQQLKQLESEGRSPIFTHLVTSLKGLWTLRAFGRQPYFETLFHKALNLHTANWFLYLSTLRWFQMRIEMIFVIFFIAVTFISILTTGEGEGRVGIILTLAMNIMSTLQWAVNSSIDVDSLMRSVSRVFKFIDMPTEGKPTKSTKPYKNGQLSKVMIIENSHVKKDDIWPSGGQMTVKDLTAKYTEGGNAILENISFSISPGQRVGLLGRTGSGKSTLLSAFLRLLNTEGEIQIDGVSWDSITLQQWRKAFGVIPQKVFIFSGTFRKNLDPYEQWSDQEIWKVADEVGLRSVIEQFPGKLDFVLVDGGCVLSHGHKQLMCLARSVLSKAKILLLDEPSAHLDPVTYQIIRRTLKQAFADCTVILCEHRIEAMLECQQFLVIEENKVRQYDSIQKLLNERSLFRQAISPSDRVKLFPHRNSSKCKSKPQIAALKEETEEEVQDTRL

Take `COc1ccc2c(c1)O[C@@H](c1ccc(C(=O)N3CCC(F)(F)CC3)cn1)C[C@H]2NC(=O)[C@@]1(C)COc2cc3c(cc21)OC(F)(F)O3` [Example 218, (7R)—N-{(2R,4R)-2-[5-(4,4-difluoropiperidine-1-carbonyl)pyridin-2-yl]-7-methoxy-3,4-dihydro-2H-1-benzopyran-4-yl}-2,2-difluoro-7-methyl-6,7-dihydro-2H-furo[2,3-f][1,3]benzodioxole-7-carboxamide]: the EC50 (usually the concentration at which the effect is half-maximal) came to 10 nM and the “Maximum % activity (%)” value was determined as 116%.

For `C[C@]1(C(=O)N[C@H]2C[C@@H](C3(C(=O)O)CC3)Oc3cc(OC(F)(F)F)ccc32)COc2cc3c(cc21)OC(F)(F)O3` [Example 201, 1-[(2S,4S)-4-{[(7R)-2,2-difluoro-7-methyl-6,7-dihydro-2H-furo[2,3-f][1,3]benzodioxole-7-carbonyl]amino}-7-(trifluoromethoxy)-3,4-dihydro-2H-1-benzopyran-2-yl]cyclopropane-1-carboxylic acid], it took 1610 nM to reach a half-maximal effect (EC50) and the “Maximum % activity (%)” value came out at 71%.

In the case of `COC(=O)c1ccc([C@H]2C[C@@H](NC(=O)[C@]3(C)COc4cc5c(cc43)OC(F)(F)O5)c3ccc(OC)cc3O2)cc1` [Example 17, methyl 4-[(2R,4R)-4-{[(7S)-2,2-difluoro-7-methyl-6,7-dihydro-2H-furo[2,3-f][1,3]benzodioxole-7-carbonyl]amino}-7-methoxy-3,4-dihydro-2H-1-benzopyran-2-yl]benzoate], the EC50 came out at 8770 nM and the “Maximum % activity (%)” value amounted to 31%.

On to `C[C@]1(C(=O)Nc2cccc(NC[C@H](O)CO)n2)COc2cc3c(cc21)OC(F)(F)O3` [Example 93, (7R)—N-(6-{[(2S)-2,3-dihydroxypropyl]amino}pyridin-2-yl)-2,2-difluoro-7-methyl-6,7-dihydro-2H-furo[2,3-f][1,3]benzodioxole-7-carboxamide], for which the EC50 turned out to be 1530 nM and the “Maximum % activity (%)” value was 89%.

Turning to `COc1ccc2c(c1)O[C@@H](c1ccc(C(=O)O)cc1)C[C@H]2NC(=O)[C@@]1(C)CCc2cc3c(cc21)OC(F)(F)O3` (single isomer, unassigned) [Example 50], the EC50 is 1670 nM and the “Maximum % activity (%)” value is reported as 75%.

Regarding `Cc1ccc(NC(=O)[C@@]2(C)COc3cc4c(cc32)OC(F)(F)O4)nc1-c1cccc(C(O)CO)c1` (stereo partly drawn) [Example 126, (7R)—N-{6-[3-(1,2-dihydroxyethyl)phenyl]-5-methylpyridin-2-yl}-2,2-difluoro-7-methyl-6,7-dihydro-2H-furo[2,3-f][1,3]benzodioxole-7-carboxamide], the EC50 was 620 nM and the “Maximum % activity (%)” value is 140%.

Consider `COc1ccc2c(c1)O[C@@H](c1ccc(C(=O)N3CCOC(CO)C3)cn1)C[C@H]2NC(=O)[C@@]1(C)COc2cc3c(cc21)OC(F)(F)O3` (stereo partly drawn) [Example 237, (7R)-2,2-difluoro-N-[(2R,4R)-2-{5-[2-(hydroxymethyl)morpholine-4-carbonyl]pyridin-2-yl}-7-methoxy-3,4-dihydro-2H-1-benzopyran-4-yl]-7-methyl-6,7-dihydro-2H-furo[2,3-f][1,3]benzodioxole-7-carboxamide], for which the EC50 came to 50 nM and the “Maximum % activity (%)” value is given as 121%.

Regarding `Cc1c(C(=O)O)ncn1-c1ccc(C(F)(F)F)cc1NC(=O)C1(C)COc2cc3c(cc21)OC(F)(F)O3` (stereo not drawn) [Example 62, 1-{2-[(2,2-difluoro-7-methyl-6,7-dihydro-2H-furo[2,3-f][1,3]benzodioxole-7-carbonyl)amino]-4-(trifluoromethyl)phenyl}-5-methyl-1H-imidazole-4-carboxylic acid], the EC50 was above 20000 nM and the “Maximum % activity (%)” value was determined as 12%.

In the case of `COc1ccc2c(c1)O[C@@H](c1ccc(C(=O)NC[C@H]3C[C@H](O)C3)cn1)C[C@H]2NC(=O)[C@@]1(C)COc2cc3c(cc21)OC(F)(F)O3` [Example 245, 6-[(2R,4R)-4-{[(7R)-2,2-difluoro-7-methyl-6,7-dihydro-2H-furo[2,3-f][1,3]benzodioxole-7-carbonyl]amino}-7-methoxy-3,4-dihydro-2H-1-benzopyran-2-yl]-N-[(trans-3-hydroxycyclobutyl)methyl]pyridine-3-carboxamide], it took 50 nM to reach a half-maximal effect (EC50) and the “Maximum % activity (%)” value is 107%.

For `COc1ccc2c(c1)O[C@@H](c1ccc(Br)nc1)C[C@H]2NC(=O)[C@@]1(C)COc2cc3c(cc21)OC(F)(F)O3` [Example 176, (7R)—N-[(2R,4R)-2-(6-bromopyridin-3-yl)-7-methoxy-3,4-dihydro-2H-1-benzopyran-4-yl]-2,2-difluoro-7-methyl-6,7-dihydro-2H-furo[2,3-f][1,3]benzodioxole-7-carboxamide], the EC50 amounted to 270 nM and the “Maximum % activity (%)” value is 118%.

Consider `COc1ccc2c(c1)O[C@@H](c1ccc(C(=O)Nc3ccccc3O)cn1)C[C@H]2NC(=O)[C@@]1(C)COc2cc3c(cc21)OC(F)(F)O3` [Example 208, 6-[(2R,4R)-4-{[(7R)-2,2-difluoro-7-methyl-6,7-dihydro-2H-furo[2,3-f][1,3]benzodioxole-7-carbonyl]amino}-7-methoxy-3,4-dihydro-2H-1-benzopyran-2-yl]-N-(2-hydroxyphenyl)pyridine-3-carboxamide], for which the EC50 stood at 10 nM and the “Maximum % activity (%)” value is 103%.

For the molecule `C[C@]1(C(=O)Nc2cccc(-c3cc(C(=O)O)ccc3F)n2)COc2cc3c(cc21)OC(F)(F)O3` [Example 128, 3-(6-{[(7R)-2,2-difluoro-7-methyl-6,7-dihydro-2H-furo[2,3-f][1,3]benzodioxole-7-carbonyl]amino}pyridin-2-yl)-4-fluorobenzoic acid], the midpoint of the response, the EC50, lay at 4960 nM and the “Maximum % activity (%)” value amounted to 172%.

Regarding `O=C(O)c1ccc([C@@H]2C[C@H](NC(=O)C3(c4ccc5c(c4)OC(F)(F)O5)CC3)c3ccccc3N2)cc1` (single isomer, unassigned) [Example 48], the EC50 worked out at 2770 nM and the “Maximum % activity (%)” value is given as 27%.

On to `Cc1ccc(NC(=O)[C@@]2(C)COc3cc4c(cc32)OC(F)(F)O4)nc1Cl` [Example 77, (7R)—N-(6-chloro-5-methylpyridin-2-yl)-2,2-difluoro-7-methyl-6,7-dihydro-2H-furo[2,3-f][1,3]benzodioxole-7-carboxamide], for which it took 6630 nM to reach a half-maximal effect (EC50) and the “Maximum % activity (%)” value came to 116%.

With `CCOC(=O)[C@H]1CC[C@H]([C@@H]2C[C@H](NC(=O)[C@@]3(C)COc4cc5c(cc43)OC(F)(F)O5)c3ccc(OC(F)(F)F)cc3O2)CC1` [Example 147, ethyl trans-4-[(2S,4S)-4-{[(7R)-2,2-difluoro-7-methyl-6,7-dihydro-2H-furo[2,3-f][1,3]benzodioxole-7-carbonyl]amino}-7-(trifluoromethoxy)-3,4-dihydro-2H-1-benzopyran-2-yl]cyclohexane-1-carboxylate], the concentration for a half-maximal effect (EC50) was 2240 nM and the “Maximum % activity (%)” value was found to be 79%.

Take `COC(=O)c1ccc([C@H]2C[C@@H](NC(=O)[C@@]3(C)COc4cc5c(cc43)OC(F)(F)O5)c3ccc(OC)cc3O2)cc1` [Example 19, methyl 4-[(2R,4R)-4-{[(7R)-2,2-difluoro-7-methyl-6,7-dihydro-2H-furo[2,3-f][1,3]benzodioxole-7-carbonyl]amino}-7-methoxy-3,4-dihydro-2H-1-benzopyran-2-yl]benzoate]: a half-maximal response (EC50) required 80 nM and the “Maximum % activity (%)” value is recorded as 130%.

Take `CCOC(=O)[C@H]1CC[C@H]([C@H]2C[C@@H](NC(=O)[C@@]3(C)COc4cc5c(cc43)OC(F)(F)O5)c3ccc(OC(F)(F)F)cc3O2)CC1` [Example 148, ethyl trans-4-[(2R,4R)-4-{[(7R)-2,2-difluoro-7-methyl-6,7-dihydro-2H-furo[2,3-f][1,3]benzodioxole-7-carbonyl]amino}-7-(trifluoromethoxy)-3,4-dihydro-2H-1-benzopyran-2-yl]cyclohexane-1-carboxylate]: the EC50 came out at 41 nM and the “Maximum % activity (%)” value was found to be 145%.

With `C[C@]1(C(=O)Nc2ccc(N3CCC(O)C3)nc2)COc2cc3c(cc21)OC(F)(F)O3` (stereo partly drawn) [Example 72, (7R)-2,2-difluoro-N-[6-(3-hydroxypyrrolidin-1-yl)pyridin-3-yl]-7-methyl-6,7-dihydro-2H-furo[2,3-f][1,3]benzodioxole-7-carboxamide], a half-maximal effect (EC50) was put at 9200 nM and the “Maximum % activity (%)” value is 28%.

`COc1ccc2c(c1)O[C@H](c1ccc(OCc3ccccc3)nn1)C[C@H]2NC(=O)[C@@]1(C)COc2cc3c(cc21)OC(F)(F)O3` (single isomer, unassigned) [Example 272]: the EC50 came out at 260 nM and the “Maximum % activity (%)” value is on record as 108%.

Take `COc1ccc2c(c1)OC(c1ccc(=O)n(C[C@@H](O)CO)n1)C[C@H]2NC(=O)[C@@]1(C)COc2cc3c(cc21)OC(F)(F)O3` (stereo partly drawn) [Example 196, (7R)—N-[(4R)-2-{1-[(2R)-2,3-dihydroxypropyl]-6-oxo-1,6-dihydropyridazin-3-yl}-7-methoxy-3,4-dihydro-2H-1-benzopyran-4-yl]-2,2-difluoro-7-methyl-6,7-dihydro-2H-furo[2,3-f][1,3]benzodioxole-7-carboxamide]: the response was half-maximal at 400 nM (EC50) and the “Maximum % activity (%)” value turned out to be 105%.

Consider `Cc1ccc(NC(=O)[C@]2(C)COc3cc4c(cc32)OC(F)(F)O4)nc1-c1cccc(C(=O)OC(C)(C)C)c1` [Example 3, tert-butyl 3-(6-{[(7S)-2,2-difluoro-7-methyl-6,7-dihydro-2H-furo[2,3-f][1,3]benzodioxole-7-carbonyl]amino}-3-methylpyridin-2-yl)benzoate], for which the EC50 is above 20000 nM and the “Maximum % activity (%)” value came to 3%.
